{"source": "patent US11612634B2", "about": "(priority 2020, dated 2023)", "key": {"[1]": {"system": "morphine analgesic tolerance, BCP rat model", "assay": "Effect on morphine analgesic tolerance in BCP rat model", "format": "in vivo", "procedure": "The successfully-established BCP model rats were divided into 4 groups randomly on the 22nd day after modeling, where the group A was injected with 0.2 μg/kg of the short peptide P10581; the group B was injected with 0.2 μg/kg of the short peptide P10581, and injected with 5 mg/kg of the morphine 30 min later; the group C was injected with 0.4 μg/kg of the short peptide P10581; and the group D was injected with 0.4 μg/kg of the short peptide P10581, and injected with 5 mg/kg of the morphine 30 min later. 1 h later, the PWT of the right hind paw of each group was recorded. Each of the rats was measured 3-5 times with an interval of 5-10 min, and the PWTs were averaged to taken as the practical PWT (unit: g). The drug administration was performed twice a day (at 9:30 a.m. and 4:30 p.m.) for consecutive 4 days, and the PWT of each group before and after the administration in the morning was measured.\nΔPWT (%) in FIG. 15D was calculated as follows: ΔPWT(%)=100*{[PWT(post-drug)−PWT(pre-drug)]/ΔPWT(Maxi)}(%): […]"}, "[2]": {"system": "morphine analgesic tolerance, inflammatory pain rat model", "assay": "Effect on morphine analgesic tolerance in Carr-induced inflammatory pain rat model", "format": "in vivo", "settings": "for effect on morphine analgesic tolerance: every 2 h", "procedure": "The Carr-induced inflammatory pain model was built according to a published method (Alessandri-Haber N, et al. Neurosci. Vol 29(19), pp. 6217-6288, 2009) for evaluating an analgesic effect of drugs administered by intraplantar injection. Specifically, 6 μL of 1 wt % Carr solution was injected into the rats between the 2nd and 3rd toes of a left hind paw to induce hyperalgesia, which was manifested as plantar swelling and a declined pain threshold of the rats within 1 hour after the injection. Those rats with a PWT lower than 100 gf were considered to be a desired Carr-induced inflammatory pain model, those rats with the PWT higher than 100 gf was removed.\n(1) 24 healthy adult SD rats, weighing 180-220 g, were selected, reinjected with 6 μL of a 1 wt % Carr solution and divided into 4 groups randomly and averagely (i.e., groups A-D). The group A was injected with normal saline; the group B was intradermally injected with 0.1 μg/kg of the short peptide P10581 through the plantar surface of the left hind paw; the group C was intradermally injected with 0.1 μg/kg of the short peptide P10581 and then with 5 mg/kg of morphine 30 min later through the plantar surface of the left hind paw; and the group D was intradermally injected with 0.05 μg/kg of the short peptide P10581, and then with 5 mg/kg of morphine 30 min later through the plantar surface of the left hind paw. 1 h later, the PWT of each group was recorded when the mechanical withdrawal of the left hind paw occurred, and each rat was measured 3-5 times at an interval of 5-10 min.\n(2) The drug was injected every 2 h according to the above-mentioned administration dose and time (seven times in total), and the PWT was recorded.\n(S1) By means of molecular biological techniques, two cysteine residues (Cys10 and Cys11) in the short peptide P10581 were replaced with alanine (Ala), and the resulting peptide was named P10581-1 (SEQ ID NO: 2).\n(S2) Three cysteine residues (Cys10, Cys11 and Cys17) in the short peptide P10581 were replaced with alanine (Ala), and the resulting peptide was named P10581-2 (SEQ ID NO: 3).\nThe rat was injected with 6 μL of 1 wt % Carr to establish a Carr-induced inflammatory pain model, and the effect of the short peptides P10581, P10581-1 and P10581-2 on the morphine analgesic tolerance was analyzed according to Experimental Example 1. […]"}}, "note": "“Also recorded” adds a separate entry of the source."}
{"sequence": "WKCNPNDDKCCRPKLKC [P10581]", "values": [{"measurement": "reversal of morphine analgesic tolerance for BCP", "setting": "[1]; 0.2 μg/kg peptide S.C. before 5 mg/kg morphine, twice a day, 4 days", "value": 73.9, "unit": "%"}, {"measurement": "restoration of analgesic effect of morphine on BCP", "setting": "[1]; 0.4 μg/kg peptide S.C. before 5 mg/kg morphine, repeated", "value": "completely restored"}, {"measurement": "dose at which morphine analgesic tolerance is effectively eliminated", "setting": "[1]; BCP, rats", "value": "≥ 0.20", "unit": "µg/kg"}, {"measurement": "effect on morphine analgesic tolerance", "setting": "[2]; 0.05 μg/kg peptide i.d. 30 min before 5 mg/kg morphine", "value": "morphine analgesic tolerance can be eliminated; also recorded: completely eliminate the morphine analgesic tolerance"}, {"measurement": "duration of eliminating effect on morphine analgesic tolerance", "setting": "[2]; 0.1 μg/kg and 0.05 μg/kg peptide with 5 mg/kg morphine", "value": "over 14 h"}, {"measurement": "effect on morphine analgesic tolerance", "setting": "[2]; 0.1 μg/kg peptide i.d. 30 min before 5 mg/kg morphine", "value": "morphine analgesic tolerance can be eliminated; also recorded: completely eliminated"}, {"measurement": "dose at which morphine analgesic tolerance is effectively alleviated", "setting": "[2]; inflammatory pain, rats", "value": "≥ 0.05", "unit": "µg/kg"}]}
